Earlier results on one compound are cited in patent US20020090664A1, “Methods for measuring stress in mammals” (priority 2000, published 2002).

The subject of the data set is salivary cortisol. As to conditions: adults exposed to the fragrance before the stressful event, compared with challenge without fragrance; Tanizawa, JP Patent No.11-19076.

Take `Cc1c[nH]c2ccccc12` [skatole]: the “effect of fragrance on stress induced release of cortisol (salivary cortisol levels)” value was “opposite effect”.
